Experiment [1] deals with UWB1.289 cells. The experiment in a line: Cell proliferation inhibitory activity in BRCA1/2-mutant or HRD-positive cells (Cell Titer-Glo). It is filed as cell-based. Conditions: UWB1289; UWB1.289 cells, 144 hours after compound treatment, Cell Titer-Glo, 1.5 nM to 10 µM; read-out: GI50 UWB1.289 BRCA1 mut. In short, it runs like this:
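UWB1.289 cells (1,000/well) in 50% MEBM/50% RPMI1640 exposed to […], final 1.5 nM to 10 µM, for 144 h at 37 °C. Viable cells measured by CellTiter-Glo luminescence; GI50 calculated.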
Background: ATP-based viability assays read luminescence as a measure of living cells.

The target of experiment [2] is T1, recombinant USP1 protein (Homo sapiens, UniProt O94782, DEL125-138/DEL229-408/DEL608-737).
T1 sequence (O94782 with tags, fused parts or gaps DEL125-138/DEL229-408/DEL608-737): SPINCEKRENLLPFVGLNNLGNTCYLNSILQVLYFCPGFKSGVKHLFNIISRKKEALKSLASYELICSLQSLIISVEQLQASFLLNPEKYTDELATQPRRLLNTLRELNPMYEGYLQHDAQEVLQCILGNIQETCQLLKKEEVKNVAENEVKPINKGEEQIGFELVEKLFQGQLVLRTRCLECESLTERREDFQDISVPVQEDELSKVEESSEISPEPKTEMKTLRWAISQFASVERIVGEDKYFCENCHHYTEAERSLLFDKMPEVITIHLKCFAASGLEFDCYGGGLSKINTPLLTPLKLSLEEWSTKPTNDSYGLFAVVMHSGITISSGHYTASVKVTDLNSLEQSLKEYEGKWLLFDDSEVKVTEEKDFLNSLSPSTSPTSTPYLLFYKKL
The experiment in a line: Binding affinity to recombinant USP1 protein by differential scanning fluorimetry. The following applies: compound 100 µM; 0.03 mg/mL USP1 (Δ1-66, Δ125-138, Δ229-408, Δ608-737); Tm with compound minus Tm with DMSO; read-out: ΔTm (°C). In short, it runs like this:
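USP1 (Δ1-66, Δ125-138, Δ229-408, Δ608-737) at 0.03 mg/mL with dye in 50 mM Tris-HCl pH 8.0, 150 mM NaCl, 2% glycerol, 1 mM DTT; compounds at 100 µM final. Tm read on real-time PCR instrument; ΔTm = Tm with compound minus Tm with DMSO.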
On the technique in general: In DSF a fluorescence change marks the thermal transition of the protein.

Each structure is given as a SMILES string. Bounds are passed on as bounds.

For orientation: GI50 means the concentration that inhibits growth by half. Usually ΔTm stands for the shift of the melting midpoint relative to a reference. As to `CNC(=O)c1cc2cnc(-c3c(OC)ncnc3C3CC3)nc2n1Cc1ccc(-c2nc(C(F)(F)F)cn2C2CC2)cc1` [Example 145, 7-(4-(1-cyclopropyl-4-(trifluoromethyl) -1H-imidazol-2-yl)benzyl)-2-(4-cyclopropyl-6-methoxypyrimidin-5-yl)-N-methyl-7H-pyrrolo[2,3-d]pyrimidine-6-carboxamide], in experiment [1], the GI50 lay in the range of 100 to 500 nM. Besides, the ΔTm at 100 µM in experiment [2] was over 5 °C.
Taken in the same sequence, the figures for `COc1ncnc(C2CC2)c1-c1ncc2cc(C(=O)N[C@@H]3CCN(C(C)C)C[C@@H]3F)n(Cc3ccc(-c4nc(C(F)(F)F)cn4C)cc3)c2n1` [Example 221, 2-(4-cyclopropyl-6-methoxypyrimidin-5-yl)-N-((3S,4R)-3-fluoro-1-isopropylpiperidin-4-yl)-7-(4-(1-methyl-4-(trifluoromethyl)-1H-imidazol-2-yl)benzyl)-7H-pyrrolo[2,3-d]pyrimidine-6-carboxamide] were under 100 nM and over 5 °C.
With `COc1ncnc(C2CC2)c1-c1ncc2cc(C(=O)N(C)C3COC3)n(Cc3ccc(-c4nc(C(F)(F)F)cn4C(C)C)cc3)c2n1` [Example 111, 2-(4-cyclopropyl-6-methoxypyrimidin-5-yl)-7-(4-(1-isopropyl-4-(trifluoromethyl)-1H-imidazol-2-yl)benzyl)-N-methyl-N-(oxetan-3-yl)-7H-pyrrolo[2,3-d]pyrimidine-6-carboxamide], the GI50 in experiment [1] fell in the range of 100 to 500 nM. Further, the ΔTm at 100 µM in experiment [2] was over 5 °C.
Taken in the same sequence, the figures for `CNC(=O)c1cc2cnc(-c3c(OC4CC4)ncnc3C3CC3)nc2n1Cc1ccc(-c2nc(C(F)(F)F)cn2C)cc1` [Example 184, 2-(4-cyclopropyl-6-cyclopropoxypyrimidin-5-yl)-N-methyl-7-(4-(1-methyl-4-(trifluoromethyl)-1H-imidazol-2-yl)benzyl)-7H-pyrrolo[2,3-d]pyrimidine-6-carboxamide] were under 100 nM and over 5 °C.
Taken in the same sequence, the figures for `COc1ncnc(C2CC2)c1-c1ncc2cc(C(=O)N3CCCC3)n(Cc3ccc(-c4nc(C(F)(F)F)cn4C(C)C)cc3)c2n1` [Example 51, (2-(4-cyclopropyl-6-methoxypyrimid in-5-yl)-7-(4-(1-isopropyl-4-(trifluoromethyl)-1H-imidazol-2-yl)benzyl)-7H-pyrrolo[2,3-d]pyrimidin-6-yl)(pyrrolidin-1-yl)methanone] were under 100 nM and over 5 °C.
With `COc1ncnc(C2CC2)c1-c1ncc2cc(C(=O)N[C@H]3CN(C4COC4)C[C@H]3F)n(Cc3ccc(-c4nc(C(F)(F)F)cn4C)cc3)c2n1` [Example 212, 2-(4-cyclopropyl-6-methoxypyrimidin-5-yl)-N-((3S,4R)-4-fluoro-1-(oxetan-3-yl)pyrrolidin-3-yl)-7-(4-(1-methyl-4-(trifluoromethyl)-1H-imidazol-2-yl)benzyl)-7H-pyrrolo [2,3-d]pyrimidine-6-carboxamide], in experiment [1], the GI50 was under 100 nM. Moreover, the ΔTm at 100 µM in experiment [2] is over 5 °C.
For `COc1ncnc(C2CC2)c1-c1ncc2cc(C(=O)N3CC(N(C)C)C3)n(Cc3ccc(-c4nc(C(F)(F)F)cn4C(C)C)cc3)c2n1` [Example 53, (2-(4-cyclopropyl-6-methoxypyrimid in-5-yl)-7-(4-(1-isopropyl-4-(trifluoromethyl)-1H-imidazol-2-yl)benzyl)-7H-pyrrolo[2,3-d]pyrimidin-6-yl) (3-(dimethylamino)azetidin-1-yl)methanone] the same measures were under 100 nM and over 5 °C.
Consider `COc1ncnc(C2CC2)c1-c1ncc2cc(C(=O)NC3CC3)n(Cc3ccc(-c4nc(C(F)(F)F)cn4C(C)C)cc3)c2n1` [Example 11, N-cyclopropyl-2-(4-cyclopropyl-6-methoxypyrimidin-5-yl)-7-(4-(1-isopropyl-4-(trifluoromethyl)-1H-imidazol-2-yl)benzyl)-7H-pyrrolo[2,3-d]pyrimidine-6-carboxamide], for which, in experiment [1], the GI50 was under 100 nM. For the same molecule, in experiment [2], the ΔTm at 100 µM was over 5 °C.
On to `COc1ncnc(C2CC2)c1-c1ncc2cc(C(=O)N[C@H]3CCN(C)CC3(F)F)n(Cc3ccc(-c4nc(C(F)(F)F)cn4C)cc3)c2n1` [Example 202, (S)-2-(4-cyclopropyl-6-methoxypyrimidin-5-yl)-N-(3,3-difluoro-1-methylpiperidin-4-yl)-7-(4-(1-methyl-4-(trifluoromethyl)-1H-imidazol-2-yl)benzyl)-7H-pyrrolo[2,3-d]pyrimidine-6-carboxamide], for which, in experiment [1], the GI50 was under 100 nM. Moreover, the ΔTm at 100 µM in experiment [2] was over 5 °C.
For `COc1ncnc(C2CC2)c1-c1ncc2cc(C(=O)N[C@H](C)CO)n(Cc3ccc(-c4nc(C(F)(F)F)cn4C)cc3)c2n1` [Example 151, (R) -2-(4-cyclopropyl-6-methoxypyrimidin-5-yl)-N-(1-hydroxypropan-2-yl)-7-(4-(1-methyl-4-(trifluoromethyl)-1H-imidazol-2-yl)benzyl)-7H-pyrrolo[2,3-d]pyrimidine-6-carboxamide] the same measures were under 100 nM and over 5 °C.
Taken in the same sequence, the figures for `CN[C@@H]1CCN(C(=O)c2cc3cnc(-c4c(OC)ncnc4C4CC4)nc3n2Cc2ccc(-c3nc(C(F)(F)F)cn3C(C)C)cc2)C1` [Example 109, (R) - (2-(4-cyclopropyl-6-methoxypyrimid in-5-yl)-7-(4-(1-isopropyl-4-(trifluoromethyl)-1H-imidazol-2-yl)benzyl)-7H-pyrrolo[2,3-d]pyrimidin-6-yl) (3-(methylamino)pyrrolidin-1-yl)methanone] were under 100 nM and over 5 °C.
Taken in the same sequence, the figures for `COc1ncnc(C2CC2)c1-c1ncc2cc(C(=O)NCCN3CCCC3)n(Cc3ccc(-c4nc(C(F)(F)F)cn4C(C)C)cc3)c2n1` [Example 47, 2-(4-cyclopropyl-6-methoxypyrimidin-5-yl)-7-(4-(1-isopropyl-4-(trifluoromethyl)-1H-imidazol-2-yl)benzyl)-N-(2-(pyrrolidin-1-yl)ethyl)-7H-pyrrolo[2,3-d]pyrimidine-6-carboxamide] were under 100 nM and over 5 °C.
Turning to `COc1ncnc(C2CC2)c1-c1ncc2cc(C(=O)N3CC(CS(C)(=O)=O)C3)n(Cc3ccc(-c4nc(C(F)(F)F)cn4C(C)C)cc3)c2n1` [Example 75, (2-(4-cyclopropyl-6-methoxypyrimid in-5-yl)-7-(4-(1-isopropyl-4-(trifluoromethyl)-1H-imidazol-2-yl)benzyl)-7H-pyrrolo[2,3-d]pyrimidin-6-yl) (3-((methylsulfonyl)methyl)azetidin-1-yl)methanone], the GI50 in experiment [1] is 100 to 500 nM. The ΔTm at 100 µM in experiment [2] is over 5 °C.
For `COc1ncnc(C2CC2)c1-c1ncc2cc(C(=O)Nc3cnn(C)c3)n(Cc3ccc(-c4nc(C(F)(F)F)cn4C(C)C)cc3)c2n1` [Example 30, 2-(4-cyclopropyl-6-methoxypyrimidin-5-yl)-7-(4-(1-isopropyl-4-(trifluoromethyl)-1H-imidazol-2-yl)benzyl)-N-(1-methyl-1H-pyrazol-4-yl)-7H-pyrrolo[2,3-d]pyrimidine-6-carboxamide] the same measures were under 100 nM and over 5 °C.
For `COc1ncnc(C2CC2)c1-c1ncc2cc(C(=O)NC[C@@H]3CCCN3C)n(Cc3ccc(-c4nc(C(F)(F)F)cn4C(C)C)cc3)c2n1` [Example 108, (S)-2-(4-cyclopropyl-6-methoxypyrimidin-5-yl)-7-(4-(1-isopropyl-4-(trifluoromethyl)-1H-imidazol-2-yl)benzyl)-N-((1-methylpyrrolidin-2-yl)methyl)-7H-pyrrolo[2,3-d]pyrimidine-6-carboxamide] the same measures were under 100 nM and over 5 °C.
For `COC(=O)CNC(=O)c1cc2cnc(-c3c(OC)ncnc3C3CC3)nc2n1Cc1ccc(-c2nc(C(F)(F)F)cn2C(C)C)cc1` [Example 45, methyl (2-(4-cyclopropyl-6-methoxypyrimid in-5-yl)-7-(4-(1-isopropyl-4-(trifluoromethyl)-1H-imidazol-2-yl)benzyl)-7H-pyrrolo[2,3-d]pyrimidine-6-carbonyl)glyci nate] the same measures were under 100 nM and over 5 °C.
For the molecule `COc1ncnc(C2CC2)c1-c1ncc2cc(C(=O)N[C@@H]3CCN(C)C3)n(Cc3ccc(-c4nc(C(F)(F)F)cn4C(C)C)cc3)c2n1` [Example 175, (R)-2-(4-cyclopropyl-6-methoxypyrimidin-5-yl)-7-(4-(1-isopropyl-4-(trifluoromethyl)-1H-imidazol-2-yl)benzyl)-N-(1-methylpyrrolidin-3-yl)-7H-pyrrolo[2,3-d]pyrimidine-6-carboxamide], in experiment [1], the GI50 was under 100 nM. In addition, the ΔTm at 100 µM in experiment [2] was over 5 °C.

The values above are taken from patent EP4806898A1, “HETEROARYL DERIVATIVE COMPOUND AND USE THEREOF” (Voronoi Inc., priority 2023, dated 2025).
